Laboratory results: ChEMBL document CHEMBL1155702, “New tirucallane-type triterpenes from Dysoxylum variabile” (J Nat Prod, 2001)
≈ marks a conversion by molar mass, not a printed value.

Tested on: KB
Assay: Cytotoxicity against human KB cells
Format: functional, cell-based

| Compound | IC50 [µg/mL] |
| --- | --- |
| C[C@H](C[C@@H](O)[C@@H]1OC1(C)C)[C@@H]1CC[C@]2(C)[C@]34O[C@@H]3C[C@H]3C(C)(C)C(=O)CC[C@]3(C)[C@H]4CC[C@@]12C [DYVARIABILIN B] | 10 (≈ 21.2 µM) |
| C[C@H](C[C@@H](O)[C@@H]1OC1(C)C)[C@@H]1CC[C@]2(C)[C@@]34O[C@H]3C[C@H]3C(C)(C)C(=O)CC[C@]3(C)[C@H]4CC[C@@]12C [DYVARIABILIN C] | 8.7 (≈ 18.4 µM) |
| C[C@H](C[C@@H](O)[C@@H]1OC1(C)C)[C@@H]1CC[C@]2(C)C3=CC[C@H]4C(C)(C)C(=O)CC[C@]4(C)[C@H]3CC[C@@]12C [NILOTICIN] | 8.4 (≈ 18.4 µM) |
